Assay results published in patent US20230094568A1, “METHOD FOR SUPPRESSING DIFFERENTIATION OF PLURIPOTENT STEM CELLS” (KANEKA CORPORATION, priority 2020, published 2023).

System: Human iPS cell WTC-11 strain
Experiment: Quantitative real-time PCR of marker genes after suspension culture (Example 2)
Assay type: cell-based
Settings: WTC-11, day 10 of suspension culture, inhibitor(s) in medium
Procedure: After the EDTA solution was sucked up, StemFit® AK02N medium was added to the dish, cells were detached with a cell scraper, and then dispersed into single cells by pipetting. […] Into a 6-well plate for suspension culture (Sumitomo Bakelite Co., Ltd.), 4 mL of the cell suspension was seeded per well. On a rotary shaker (Optima Co., Ltd.), the plate into which the cells had been seeded was rotated along a circle having a rotation width (diameter) of 25 mm in the horizontal plane at a speed of 90 rpm, and suspension culture was performed under an environment at 37° C. and 5% CO2. Subculture was performed on day 5 of culture as the day on which the cells were seeded was defined as day 0 of culture, and suspension culture was performed until day 10 of culture. Medium exchange was performed on day 2, 4, 7, and 9 of culture. […] On day 5 of culture, a cell aggregate and culture supernatant were collected from each well into a centrifuge tube, left to stand for about 5 minutes to precipitate the cell aggregate, and the culture supernatant was removed. […]
Quantitative real-time PCR analysis was performed with a procedure shown in the following. […] Quantitative real-time PCR analysis was carried out by using a TaqMan® QuantStudio3 real-time PCR system (Thermo Fisher Scientific).

| Structure (SMILES) | ACTB-normalized relative gene expression level (2^−ΔCt) OCT4 |
| --- | --- |
| O=C(Nc1cccc2cccnc12)c1ccc(N2C(=O)[C@@H]3[C@H](C2=O)[C@@H]2C=C[C@H]3C2)cc1 [Comparative Example 2, 4-(1,3,3a,4,7,7a-hexahydro-1,3-dioxo-4,7-methano-2H-isoindol-2-yl)-N-8-quinolinyl-benzamide] | 2.05 |
| COc1ccc2c(c1)c(C1=C(c3c[nH]c4ccccc34)C(=O)NC1=O)cn2CCCN(C)C [Comparative Example 3, 3-[1-[3-(dimethylamino)propyl]-5-methoxy-1H-indol-3-yl]-4-(1H-indol-3-yl)-1H-pyrrole-2,5-dione] | 3.30 × 10^−3 |
